± gives the expanded uncertainty stated by the source.

The nature of the series: refractive index (Na D-line) (dimensionless). Particulars: 298.15 K; 101.33 kPa; Liquid; Standard Abbe refractometry.
What is called refractive index is the speed of light in vacuum divided by its phase velocity in the sample. For the compound `O` [water], the refractive index worked out at 1.3325 ± 0.00072.
For the compound `CCOC(C)=O` [ethyl acetate], the refractive index is listed as 1.36978 ± 0.00072.
On to `CCCCCO` [pentan-1-ol], for which the refractive index was found to be 1.4077 ± 0.00073.
The figure for `CCO` [ethanol] is 1.35941 ± 0.00073.

These data come from the NIST ThermoML archive (doi:10.1021/je060054+).
